# Reference: BindingDB's records for doi:10.1111/cbdd.12089 (Southeast University, 2013)
# Assays:
# Aurora kinase A = molecular target: T1, Aurora kinase A (Homo sapiens, UniProt O14965); experiment: Aurora Kinase Assay
# T1 sequence (O14965 whole entry): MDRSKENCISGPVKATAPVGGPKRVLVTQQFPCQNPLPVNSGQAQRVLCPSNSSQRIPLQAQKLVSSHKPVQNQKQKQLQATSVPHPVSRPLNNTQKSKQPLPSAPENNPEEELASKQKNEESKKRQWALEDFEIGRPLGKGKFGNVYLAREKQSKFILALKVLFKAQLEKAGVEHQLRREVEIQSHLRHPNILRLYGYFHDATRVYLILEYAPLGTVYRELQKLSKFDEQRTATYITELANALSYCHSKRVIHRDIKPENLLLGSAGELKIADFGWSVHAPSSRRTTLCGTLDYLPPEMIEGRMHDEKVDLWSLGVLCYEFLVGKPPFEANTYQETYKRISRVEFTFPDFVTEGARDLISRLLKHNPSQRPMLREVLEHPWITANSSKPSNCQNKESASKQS
# Method: (§1) The kinase assay of Aurora A and B was measured using HTRF-kinEASE-STK discovery kit purchased from Cisbio.
# Aurora kinase B = Aurora kinase B (Homo sapiens, UniProt Q96GD4); experiment: Aurora Kinase Assay
# Aurora kinase B, sequence (Q96GD4 whole entry): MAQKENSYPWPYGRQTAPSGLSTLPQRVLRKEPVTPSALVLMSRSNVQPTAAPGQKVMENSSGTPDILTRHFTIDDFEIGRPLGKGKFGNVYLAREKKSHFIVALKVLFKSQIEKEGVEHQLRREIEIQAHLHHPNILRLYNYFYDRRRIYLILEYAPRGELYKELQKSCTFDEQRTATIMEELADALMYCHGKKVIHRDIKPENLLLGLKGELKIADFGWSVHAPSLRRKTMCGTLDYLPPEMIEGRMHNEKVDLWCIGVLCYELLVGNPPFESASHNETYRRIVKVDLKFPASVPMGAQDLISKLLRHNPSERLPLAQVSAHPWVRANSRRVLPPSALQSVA
# Method: as §1
IC50 (Aurora kinase A),IC50 (Aurora kinase B),Structure (SMILES)
77 nM,145 nM,"Cc1ccc(Nc2ncnc3cc(OCCCN4CCCC4)ccc23)cc1Nc1ncc(-c2cccnc2)cn1 [4-Aminoquinazoline derivative, 6d]"
111 nM,136 nM,"CCOC(=O)c1csc2cc(Nc3ncnc4cc(OCCCN5CCN(C)CC5)ccc34)ccc12 [4-Aminoquinazoline derivative, 6f]"
822 nM,,"CCOC(=O)c1csc2cc(Nc3ncnc4cc(OCCCN5CCCCC5)ccc34)ccc12 [4-Aminoquinazoline derivative, 6g]"
62 nM,146 nM,"CCOC(=O)c1csc2cc(Nc3ncnc4cc(OCCCN5CCCC5)ccc34)ccc12 [4-Aminoquinazoline derivative, 6h]"
788 nM,893 nM,"CCOC(=O)c1csc2cc(Nc3ncnc4cc(OCCCN(CC)CC)ccc34)ccc12 [4-Aminoquinazoline derivative, 6i]"

# Second part, the compound before the results:
Structure (SMILES),IC50 (Aurora kinase A),IC50 (Aurora kinase B)
"Cc1ccc(Nc2ncnc3cc(OCCCN4CCOCC4)ccc23)cc1Nc1ncc(-c2cccnc2)cn1 [4-Aminoquinazoline derivative, 6a]",179 nM,191 nM
"Cc1ccc(Nc2ncnc3cc(OCCCN4CCCCC4)ccc23)cc1Nc1ncc(-c2cccnc2)cn1 [4-Aminoquinazoline derivative, 6b]",323 nM,489 nM
"CCN(CC)CCCOc1ccc2c(Nc3ccc(C)c(Nc4ncc(-c5cccnc5)cn4)c3)ncnc2c1 [4-Aminoquinazoline derivative, 6c]",98 nM,202 nM
